Flash point data for 87 compounds are collected here from a flash point compilation (Sun et al. 2020).

The compound `CCC(O)OCCCOC` (configuration not stated) [1-(3-methoxypropoxy)propan-1-ol] gave a flash point of 74.00 °C.

Compound `Cc1ccccc1CBr` [1-(bromomethyl)-2-methylbenzene] registered a flash point of 82.00 °C. For `Cc1cccc(CBr)c1` [1-(bromomethyl)-3-methylbenzene] the value was 82.00 °C. For `C=CCSSCCC` [1-(prop-2-enyldisulfanyl)propane] the value was 56.00 °C; for `CCCSSCCC` [1-(propyldisulfanyl)propane], 66.00 °C. In the case of `CC(CCN(C)C)N(C)C` (configuration not stated) [1-N,1-N,3-N,3-N-tetramethylbutane-1,3-diamine], the flash point was found to be 46.00 °C. Consider `CCC(C)Nc1ccc(NC(C)CC)cc1` (configuration not stated) [1-N,4-N-di(butan-2-yl)benzene-1,4-diamine], for which the flash point is 141.00 °C.

Compound `c1ccc(Nc2ccc(Nc3ccccc3)cc2)cc1` [1-N,4-N-diphenylbenzene-1,4-diamine] came in with a flash point of 204.00 °C.

For the compound `CC(C)Nc1ccc(Nc2ccccc2)cc1` [1-N-phenyl-4-N-propan-2-ylbenzene-1,4-diamine], the flash point was 151.00 °C. For `c1ccc2occc2c1` [1-benzofuran] the value was 56.00 °C. Compound `ClCCCBr` [1-bromo-3-chloropropane] returned a flash point of 57.00 °C. For `Cc1cccc(Br)c1` [1-bromo-3-methylbenzene] the value was 60.00 °C. Consider `Fc1ccc(Br)cc1` [1-bromo-4-fluorobenzene], for which the flash point came to 60.00 °C.

As to `CC(Br)c1ccccc1` (configuration not stated) [1-bromoethylbenzene], the flash point came out at 96.00 °C.

Regarding `CCCCOCC(C)O` (configuration not stated) [1-butoxypropan-2-ol], the flash point turned out to be 63.00 °C. For `FC(F)=C(F)Cl` [1-chloro-1,2,2-trifluoroethene], the flash point is -27.00 °C. With `CCC(Cl)[N+](=O)[O-]` (configuration not stated) [1-chloro-1-nitropropane] the figure was 62.00 °C; with `O=[N+]([O-])c1ccc(Cl)c([N+](=O)[O-])c1` [1-chloro-2,4-dinitrobenzene], 194.00 °C; with `ClCc1ccccc1Cl` [1-chloro-2-(chloromethyl)benzene], 91.00 °C.

As to `C=Cc1ccccc1Cl` [1-chloro-2-ethenylbenzene], the flash point stood at 59.00 °C. For `CCCCCCl` [1-chloropentane] the value was 1.00 °C.

`CC(O)CCl` (configuration not stated) [1-chloropropan-2-ol] had a flash point of 52.00 °C. With `C=COCCOC` [1-ethenoxy-2-methoxyethane] the figure was 18.00 °C. Consider `C=COCCCC` [1-ethenoxybutane], for which the flash point is -9.00 °C.

As to `C=Cc1cccc(C)c1` [1-ethenyl-3-methylbenzene], the flash point came to 60.00 °C. With `C=Cc1ccc(C)cc1` [1-ethenyl-4-methylbenzene] the figure was 52.00 °C; with `CCOCCOCCOCC` [1-ethoxy-2-(2-ethoxyethoxy)ethane], 54.00 °C; with `CCCCOCC` [1-ethoxybutane], 4.00 °C. With `CCOCC(C)O` (configuration not stated) [1-ethoxypropan-2-ol] the figure was 40.00 °C. For `CCOCC(C)OC(C)=O` (configuration not stated) [1-ethoxypropan-2-yl acetate] the value was 53.00 °C; for `Cc1ccccc1F` [1-fluoro-2-methylbenzene], 13.00 °C. With `C=C(C)C(=O)OC(C)CO` (configuration not stated) [1-hydroxypropan-2-yl 2-methylprop-2-enoate], the flash point was 121.00 °C.

Consider `O=[N+]([O-])c1cccc(I)c1` [1-iodo-3-nitrobenzene], for which the flash point was found to be 72.00 °C.

Regarding `O=C=Nc1ccc(Cc2ccc(N=C=O)cc2)cc1` [1-isocyanato-4-[(4-isocyanatophenyl)methyl]benzene], the flash point turned out to be 218.00 °C. The compound `CCCCN=C=O` [1-isocyanatobutane] came in with a flash point of 19.00 °C. For `COCCOCCOCCOC` [1-methoxy-2-[2-(2-methoxyethoxy)ethoxy]ethane] the value was 111.00 °C. For `COCC(C)O` (configuration not stated) [1-methoxypropan-2-ol] the value was 36.00 °C; for `CC1(C2CCC3(C)OC3C2)CO1` (configuration not stated) [1-methyl-4-(2-methyloxiran-2-yl)-7-oxabicyclo[4.1.0]heptane], 118.00 °C; for `Cc1ccc([N+](=O)[O-])cc1` [1-methyl-4-nitrobenzene], 106.00 °C. `C=C(C)C1CC=C(C)CC1` (configuration not stated) [1-methyl-4-prop-1-en-2-ylcyclohexene] had a flash point of 46.00 °C.

`Cc1ccc(C(C)C)cc1` [1-methyl-4-propan-2-ylbenzene] came in with a flash point of 47.00 °C. For `CC1=CCC(=C(C)C)CC1` [1-methyl-4-propan-2-ylidenecyclohexene] the value was 64.00 °C; for `CC1(O)CCCCC1` [1-methylcyclohexan-1-ol], 67.00 °C; for `CN1CCCC1=O` [1-methylpyrrolidin-2-one], 96.00 °C. With `O=[N+]([O-])c1ccccc1-c1ccccc1` [1-nitro-2-phenylbenzene] the figure was 143.00 °C; with `O=[N+]([O-])c1cccc(C(F)(F)F)c1` [1-nitro-3-(trifluoromethyl)benzene], 101.00 °C; with `CC[N+](=O)[O-]` [1-nitroethane], 41.00 °C.

`CC(N)c1ccccc1` (configuration not stated) [1-phenylethanamine]: the flash point turned out to be 79.00 °C. For `CC(O)c1ccccc1` (configuration not stated) [1-phenylethanol] the value was 85.00 °C; for `CC(N)Cc1ccccc1` (configuration not stated) [1-phenylpropan-2-amine], 27.00 °C; for `CCCOCCC` [1-propoxypropane], 21.00 °C.

In turn, `Cc1ccc(C(C)(C)C)cc1` [1-tert-butyl-4-methylbenzene] displayed a flash point of 58.00 °C.

`c1c[nH]cn1` [1H-imidazole] gave a flash point of 145.00 °C.

`c1cc[nH]c1` [1H-pyrrole] returned a flash point of 39.00 °C.

In turn, `N#CC(Cl)(Cl)Cl` [2,2,2-trichloroacetonitrile] yielded a flash point of 74.00 °C. For `CC(C)C(O)C(C)(C)CO` (configuration not stated) [2,2,4-trimethylpentane-1,3-diol] the value was 113.00 °C. `O=CC(Cl)Cl` [2,2-dichloroacetaldehyde] came in with a flash point of 60.00 °C. On to `O=C(Cl)C(Cl)Cl` [2,2-dichloroacetyl chloride], for which the flash point was determined as 66.00 °C.

`OCC(Cl)Cl` [2,2-dichloroethanol] returned a flash point of 78.00 °C.

Compound `C=C1C2CCC(C2)C1(C)C` (configuration not stated) [2,2-dimethyl-3-methylidenebicyclo[2.2.1]heptane] yielded a flash point of 33.00 °C. In turn, `Oc1c(Cl)cc(Cl)c(Cl)c1Cl` [2,3,4,6-tetrachlorophenol] registered a flash point of 100.00 °C. As for `CCCCCCCC(=O)OCC(COC(=O)CCCCCCC)OC(=O)CCCCCCC` [2,3-di(octanoyloxy)propyl octanoate], the flash point worked out at 177.00 °C. `CC(=O)OCC(COC(C)=O)OC(C)=O` [2,3-diacetyloxypropyl acetate]: the flash point was determined as 138.00 °C.

With `C=C(C)C(=O)OCC(Br)CBr` (configuration not stated) [2,3-dibromopropyl 2-methylprop-2-enoate], the flash point stood at 59.00 °C. The compound `O=CC(Cl)=C(Cl)C(=O)O` [2,3-dichloro-4-oxobut-2-enoic acid] yielded a flash point of 100.00 °C.

`C=C(Cl)CCl` [2,3-dichloroprop-1-ene]: the flash point came to 10.00 °C. For `OCC(Cl)CCl` (configuration not stated) [2,3-dichloropropan-1-ol] the value was 91.00 °C; for `CC(C)C(C)C` [2,3-dimethylbutane], -29.00 °C. As for `CC1OC1C` (configuration not stated) [2,3-dimethyloxirane], the flash point was -18.00 °C. For the compound `CCC(C)C(C)CO` (configuration not stated) [2,3-dimethylpentan-1-ol], the flash point came to 61.00 °C. With `C=C(C)CC(C)(C)C` [2,4,4-trimethylpent-1-ene], the flash point is 2.00 °C. With `Cc1cc(C)nc(C)c1` [2,4,6-trimethylpyridine], the flash point came out at 58.00 °C.

Regarding `CN(C)Cc1cc(CN(C)C)c(O)c(CN(C)C)c1` [2,4,6-tris[(dimethylamino)methyl]phenol], the flash point is 124.00 °C. With `CCCCCCCCCc1ccc(O)c(CCCCCCCCC)c1` [2,4-di(nonyl)phenol] the figure was 127.00 °C.

For `Oc1ccc(Br)cc1Br` [2,4-dibromophenol], the flash point worked out at 113.00 °C. With `O=Cc1ccc(Cl)cc1Cl` [2,4-dichlorobenzaldehyde] the figure was 135.00 °C. Turning to `Cc1ccc(N)c(C)c1` [2,4-dimethylaniline], the flash point came out at 96.00 °C. For `Nc1cc(Cl)ccc1Cl` [2,5-dichloroaniline] the value was 113.00 °C; for `Cc1ccc(C)o1` [2,5-dimethylfuran], -1.00 °C; for `CC1CCC2CC1C2(C)C` (configuration not stated) [2,6,6-trimethylbicyclo[3.1.1]heptane], 40.00 °C. Compound `O=Cc1c(Cl)cccc1Cl` [2,6-dichlorobenzaldehyde] showed a flash point of 135.00 °C.

For `Cc1cccc(C)c1N.Cl` [2,6-dimethylaniline;hydrochloride], the flash point is 91.00 °C. The compound `CC(C)CC(=O)CC(C)C` [2,6-dimethylheptan-4-one] registered a flash point of 60.00 °C. With `CC(Oc1ccc(Cl)cc1Cl)C(=O)O` (configuration not stated) [2-(2,4-dichlorophenoxy)propanoic acid] the figure was 204.00 °C. For `CCCCOCCOCCSC#N` [2-(2-butoxyethoxy)ethyl thiocyanate] the value was 52.00 °C; for `CCOCCOCCOC(C)=O` [2-(2-ethoxyethoxy)ethyl acetate], 110.00 °C; for `CCCCCCOCCOCCO` [2-(2-hexoxyethoxy)ethanol], 141.00 °C.
